Experimental data taken from ChEMBL document CHEMBL1131152, “In vitro and in vivo activities of oligodeoxynucleotide-based thrombin inhibitors containing neutral formacetal linkages” (J Med Chem, 1998).

Biological target: Prothrombin (Homo sapiens) (UniProt P00734)
Assay: Relative prothrombin time was determined as the activity of the test ODN (oligodeoxynucleotide) relative to that of GS-522

## Cc1cn([C@H]2C[C@H](OP(=O)(O)OC[C@H]3O[C@@H](n4cnc5c(=O)nc(N)[nH]c54)C[C@@H]3OP(=O)(O)OC[C@H]3O[C@@H](n4cnc5c(=O)[nH]c(=N)[nH]c54)C[C@@H]3OP(=O)(O)OC[C@H]3O[C@@H](n4cc(C)c(=O)[nH]c4=O)C[C@@H]3OP(=O)(O)OC[C@H]3O[C@@H](n4cnc5c(=O)[nH]c(=N)[nH]c54)C[C@@H]3OP(=O)(O)OC[C@H]3O[C@@H](n4cc(C)c(=O)[nH]c4=O)C[C@@H]3OP(=O)(O)OC[C@H]3O[C@@H](n4cnc5c(=O)nc(N)[nH]c54)C[C@@H]3OP(=O)(O)OC[C@H]3O[C@@H](n4cnc5c(=O)[nH]c(=N)[nH]c54)C[C@@H]3OP(=O)(O)OC[C@H]3O[C@@H](n4cc(C)c(=O)[nH]c4=O)C[C@@H]3OP(=O)(O)OC[C@H]3O[C@@H](n4cc(C)c(=O)[nH]c4=O)C[C@@H]3OP(=O)(O)OC[C@H]3O[C@@H](n4cnc5c(=O)[nH]c(=N)[nH]c54)C[C@@H]3OCOC[C@H]3O[C@@H](n4cnc5c(=O)nc(N)[nH]c54)C[C@@H]3O)[C@@H](COP(=O)(O)O[C@H]3C[C@H](n4cc(C)c(=O)[nH]c4=O)O[C@@H]3COP(=O)(O)O[C@H]3C[C@H](n4cnc5c(=O)nc(N)[nH]c54)O[C@@H]3COCO[C@H]3C[C@H](n4cnc5c(=O)[nH]c(=N)[nH]c54)O[C@@H]3COP(=O)(O)O)O2)c(=O)[nH]c1=O
  Relative PT: 0.7

## Cc1cn([C@H]2C[C@H](OCOC[C@H]3O[C@@H](n4cnc5c(=O)nc(N)[nH]c54)C[C@@H]3OP(=O)(O)OC[C@H]3O[C@@H](n4cnc5c(=O)[nH]c(=N)[nH]c54)C[C@@H]3OP(=O)(O)OC[C@H]3O[C@@H](n4cc(C)c(=O)[nH]c4=O)C[C@@H]3OP(=O)(O)OC[C@H]3O[C@@H](n4cc(C)c(=O)[nH]c4=O)C[C@@H]3OP(=O)(O)OC[C@H]3O[C@@H](n4cnc5c(=O)[nH]c(=N)[nH]c54)C[C@@H]3OP(=O)(O)OC[C@H]3O[C@@H](n4cnc5c(=O)nc(N)[nH]c54)C[C@@H]3O)[C@@H](COP(=O)(O)O[C@H]3C[C@H](n4cnc5c(=O)[nH]c(=N)[nH]c54)O[C@@H]3COP(=O)(O)O[C@H]3C[C@H](n4cc(C)c(=O)[nH]c4=O)O[C@@H]3COP(=O)(O)O[C@H]3C[C@H](n4cnc5c(=O)[nH]c(=N)[nH]c54)O[C@@H]3COP(=O)(O)O[C@H]3C[C@H](n4cnc5c(=O)nc(N)[nH]c54)O[C@@H]3COP(=O)(O)O[C@H]3C[C@H](n4cc(C)c(=O)[nH]c4=O)O[C@@H]3COP(=O)(O)O[C@H]3C[C@H](n4cc(C)c(=O)[nH]c4=O)O[C@@H]3COP(=O)(O)O[C@H]3C[C@H](n4cnc5c(=O)nc(N)[nH]c54)O[C@@H]3COP(=O)(O)O[C@H]3C[C@H](n4cnc5c(=O)nc(N)[nH]c54)O[C@@H]3COP(=O)(O)O)O2)c(=O)[nH]c1=O
  Relative PT: 1.1

## Cc1cn([C@H]2C[C@H](OCOC[C@H]3O[C@@H](n4cc(C)c(=O)[nH]c4=O)C[C@@H]3OP(=O)(O)OC[C@H]3O[C@@H](n4cnc5c(=O)nc(N)[nH]c54)C[C@@H]3OP(=O)(O)OC[C@H]3O[C@@H](n4cnc5c(=O)[nH]c(=N)[nH]c54)C[C@@H]3OCOC[C@H]3O[C@@H](n4cc(C)c(=O)[nH]c4=O)C[C@@H]3OP(=O)(O)OC[C@H]3O[C@@H](n4cnc5c(=O)nc(N)[nH]c54)C[C@@H]3OCOC[C@H]3O[C@@H](n4cc(C)c(=O)[nH]c4=O)C[C@@H]3OP(=O)(O)OC[C@H]3O[C@@H](n4cnc5c(=O)nc(N)[nH]c54)C[C@@H]3OP(=O)(O)OC[C@H]3O[C@@H](n4cnc5c(=O)[nH]c(=N)[nH]c54)C[C@@H]3OP(=O)(O)OC[C@H]3O[C@@H](n4cc(C)c(=O)[nH]c4=O)C[C@@H]3OCOC[C@H]3O[C@@H](n4cc(C)c(=O)[nH]c4=O)C[C@@H]3OP(=O)(O)OC[C@H]3O[C@@H](n4cnc5c(=O)[nH]c(=N)[nH]c54)C[C@@H]3OP(=O)(O)OC[C@H]3O[C@@H](n4cnc5c(=O)nc(N)[nH]c54)C[C@@H]3O)[C@@H](COP(=O)(O)O[C@H]3C[C@H](n4cnc5c(=O)[nH]c(=N)[nH]c54)O[C@@H]3COP(=O)(O)O[C@H]3C[C@H](n4cnc5c(=O)nc(N)[nH]c54)O[C@@H]3COP(=O)(O)O)O2)c(=O)[nH]c1=O
  Relative PT: 0.8

## Cc1cn([C@H]2C[C@H](OP(=O)(O)OC[C@H]3O[C@@H](n4cnc5c(=O)nc(N)[nH]c54)C[C@@H]3OCOC[C@H]3O[C@@H](n4cnc5c(=O)[nH]c(=N)[nH]c54)C[C@@H]3OP(=O)(O)OC[C@H]3O[C@@H](n4cc(C)c(=O)[nH]c4=O)C[C@@H]3OP(=O)(O)OC[C@H]3O[C@@H](n4cnc5c(=O)[nH]c(=N)[nH]c54)C[C@@H]3OP(=O)(O)OC[C@H]3O[C@@H](n4cc(C)c(=O)[nH]c4=O)C[C@@H]3OP(=O)(O)OC[C@H]3O[C@@H](n4cnc5c(=O)nc(N)[nH]c54)C[C@@H]3OCOC[C@H]3O[C@@H](n4cnc5c(=O)[nH]c(=N)[nH]c54)C[C@@H]3OP(=O)(O)OC[C@H]3O[C@@H](n4cc(C)c(=O)[nH]c4=O)C[C@@H]3OP(=O)(O)OC[C@H]3O[C@@H](n4cc(C)c(=O)[nH]c4=O)C[C@@H]3OP(=O)(O)OC[C@H]3O[C@@H](n4cnc5c(=O)[nH]c(=N)[nH]c54)C[C@@H]3OP(=O)(O)OC[C@H]3O[C@@H](n4cnc5c(=O)nc(N)[nH]c54)C[C@@H]3O)[C@@H](COP(=O)(O)O[C@H]3C[C@H](n4cc(C)c(=O)[nH]c4=O)O[C@@H]3COP(=O)(O)O[C@H]3C[C@H](n4cnc5c(=O)nc(N)[nH]c54)O[C@@H]3COP(=O)(O)O[C@H]3C[C@H](n4cnc5c(=O)[nH]c(=N)[nH]c54)O[C@@H]3COP(=O)(O)O)O2)c(=O)[nH]c1=O
  Relative PT: 0.6

## Cc1cn([C@H]2C[C@H](OCOC[C@H]3O[C@@H](n4cnc5c(=O)nc(N)[nH]c54)C[C@@H]3OP(=O)(O)OC[C@H]3O[C@@H](n4cnc5c(=O)[nH]c(=N)[nH]c54)C[C@@H]3OP(=O)(O)OC[C@H]3O[C@@H](n4cc(C)c(=O)[nH]c4=O)C[C@@H]3OCOC[C@H]3O[C@@H](n4cnc5c(=O)[nH]c(=N)[nH]c54)C[C@@H]3OP(=O)(O)OC[C@H]3O[C@@H](n4cc(C)c(=O)[nH]c4=O)C[C@@H]3OP(=O)(O)OC[C@H]3O[C@@H](n4cnc5c(=O)nc(N)[nH]c54)C[C@@H]3OP(=O)(O)OC[C@H]3O[C@@H](n4cnc5c(=O)[nH]c(=N)[nH]c54)C[C@@H]3OP(=O)(O)OC[C@H]3O[C@@H](n4cc(C)c(=O)[nH]c4=O)C[C@@H]3OP(=O)(O)OC[C@H]3O[C@@H](n4cc(C)c(=O)[nH]c4=O)C[C@@H]3OP(=O)(O)OC[C@H]3O[C@@H](n4cnc5c(=O)[nH]c(=N)[nH]c54)C[C@@H]3OP(=O)(O)OC[C@H]3O[C@@H](n4cnc5c(=O)nc(N)[nH]c54)C[C@@H]3O)[C@@H](COP(=O)(O)O[C@H]3C[C@H](n4cc(C)c(=O)[nH]c4=O)O[C@@H]3COP(=O)(O)O[C@H]3C[C@H](n4cnc5c(=O)[nH]c(=N)[nH]c54)O[C@@H]3COP(=O)(O)O[C@H]3C[C@H](n4cnc5c(=O)[nH]c(=N)[nH]c54)O[C@@H]3COP(=O)(O)O)O2)c(=O)[nH]c1=O
  Relative PT: 0.3

## Cc1cn([C@H]2C[C@H](OP(=O)(O)OC[C@H]3O[C@@H](n4cnc5c(=O)nc(N)[nH]c54)C[C@@H]3OCOC[C@H]3O[C@@H](n4cnc5c(=O)[nH]c(=N)[nH]c54)C[C@@H]3OP(=O)(O)OC[C@H]3O[C@@H](n4cc(C)c(=O)[nH]c4=O)C[C@@H]3OP(=O)(O)OC[C@H]3O[C@@H](n4cnc5c(=O)[nH]c(=N)[nH]c54)C[C@@H]3OP(=O)(O)OC[C@H]3O[C@@H](n4cc(C)c(=O)[nH]c4=O)C[C@@H]3OP(=O)(O)OC[C@H]3O[C@@H](n4cnc5c(=O)nc(N)[nH]c54)C[C@@H]3OP(=O)(O)OC[C@H]3O[C@@H](n4cnc5c(=O)[nH]c(=N)[nH]c54)C[C@@H]3OP(=O)(O)OC[C@H]3O[C@@H](n4cc(C)c(=O)[nH]c4=O)C[C@@H]3OP(=O)(O)OC[C@H]3O[C@@H](n4cc(C)c(=O)[nH]c4=O)C[C@@H]3OP(=O)(O)OC[C@H]3O[C@@H](n4cnc5c(=O)[nH]c(=N)[nH]c54)C[C@@H]3OCOC[C@H]3O[C@@H](n4cnc5c(=O)nc(N)[nH]c54)C[C@@H]3O)[C@@H](COP(=O)(O)O[C@H]3C[C@H](n4cc(C)c(=O)[nH]c4=O)O[C@@H]3COP(=O)(O)O[C@H]3C[C@H](n4cnc5c(=O)nc(N)[nH]c54)O[C@@H]3COP(=O)(O)O[C@H]3C[C@H](n4cnc5c(=O)[nH]c(=N)[nH]c54)O[C@@H]3COP(=O)(O)O)O2)c(=O)[nH]c1=O
  Relative PT: 0.6

## Cc1cn([C@H]2C[C@H](OCOC[C@H]3O[C@@H](n4cc(C)c(=O)[nH]c4=O)C[C@@H]3OP(=O)(O)OC[C@H]3O[C@@H](n4cnc5c(=O)[nH]c(=N)[nH]c54)C[C@@H]3OP(=O)(O)OC[C@H]3O[C@@H](n4cnc5c(=O)nc(N)[nH]c54)C[C@@H]3O)[C@@H](COP(=O)(O)O[C@H]3C[C@H](n4cnc5c(=O)[nH]c(=N)[nH]c54)O[C@@H]3COP(=O)(O)O[C@H]3C[C@H](n4cnc5c(=O)nc(N)[nH]c54)O[C@@H]3COP(=O)(O)O[C@H]3C[C@H](n4cc(C)c(=O)[nH]c4=O)O[C@@H]3COP(=O)(O)O[C@H]3C[C@H](n4cnc5c(=O)[nH]c(=N)[nH]c54)O[C@@H]3COP(=O)(O)O[C@H]3C[C@H](n4cc(C)c(=O)[nH]c4=O)O[C@@H]3COP(=O)(O)O[C@H]3C[C@H](n4cnc5c(=O)[nH]c(=N)[nH]c54)O[C@@H]3COP(=O)(O)O[C@H]3C[C@H](n4cnc5c(=O)nc(N)[nH]c54)O[C@@H]3COP(=O)(O)O[C@H]3C[C@H](n4cc(C)c(=O)[nH]c4=O)O[C@@H]3COP(=O)(O)O[C@H]3C[C@H](n4cc(C)c(=O)[nH]c4=O)O[C@@H]3COP(=O)(O)O[C@H]3C[C@H](n4cnc5c(=O)nc(N)[nH]c54)O[C@@H]3COP(=O)(O)O[C@H]3C[C@H](n4cnc5c(=O)nc(N)[nH]c54)O[C@@H]3COP(=O)(O)O)O2)c(=O)[nH]c1=O
  Relative PT: 1.1
